Results on 15 compounds are retold here after patent US7842809B2, “Pyrazolopyridines and salts thereof, a pharmaceutical composition comprising said compounds, a method of preparing same and use of same” (Bayer Schering Pharma AG, priority 2005, dated 2010).

The target of test [1] is T1, VEGFR-2 (Homo sapiens, UniProt P35968).
T1 construct: made in house; host or cells: E. coli
Kind of test: VEGFR-2 kinase assay (Biological Experiment 5, HTRF). The format is biochemical. The conditions noted are these: mean IC50; recombinant VEGFR-2, 10 μM ATP; read-out: Inhibition of VEGFR-2 kinase. The method, then: Biological Experiment 5: VEGFR-2 Kinase Assay
Recombinant VEGFR-2 protein was expressed in E. coli and purified. As kinase substrate, a biotinylated peptide with the amino acid sequence biotin-DFGLARDMYDKEYYSVG was used, which was obtained from Biosynthan.
VEGFR-2 [Test volume 5 μL] was incubated for 45 min at 22° C. in the presence of different concentrations of test substances (0 μM, including 10 datapoints within the range 0.001-20 μM in duplicate) in assay buffer [50 mM HEPES pH7.0, 25.0 mM MgCl2, 5.0 mM MnCl2, 0.1 mM Na ortho-Vanadate, 1.0 mM Dithiothreitol, 0.001% NP40, 10 μM ATP, 1.2 μM peptide substrate, 1.0% DMSO]. The reaction was stopped by addition of 5 μL of an EDTA/detection-solution [50 mM HEPES pH7.5, 125 mM EDTA, 0.2% BSA, 0.1 μM Streptavidin-XLent (obtained from CisBio), 1 nM PT66-Eu (obtained from PerkinElmer)]. The measurement of the fluorescence emission at 620 nm and 665 nm through excitation with light of wavelength 350 nm was accomplished in a Rubystar HTRF-measurement instrument obtained from BMG Labsystems.
The data (ratio of emission at 665 nm to emission at 620 nm multiplied by 10000) was normalised to 0% inhibition (enzyme reaction without inhibitor) and 100% inhibition (all assay components without enzyme). The determination of the IC50 values was accomplished with a 4-parameter fit using in-house software.
(In general: TR-FRET usually uses a lanthanide donor and a delayed reading to cut background.)

The target of test [2] is T2, Tie2 (Homo sapiens, UniProt Q02763). In words: Tie-2 ELISA: angiopoietin-2 stimulated Tie2 autophosphorylation in Tie2-transfected CHO cells (Biological Experiment 1). The following applies: mean IC50; CHO Tie2/DHFR cells stimulated with Ang2-Fc. Details: expressed in transfected cells; host or cells: CHO (DHFR-deficient), stably transfected. The format is cell-based. The procedure:
Biological Experiment 1: ELISA-Assay
Herein CHO cell-cultures, which are stably transfected by known techniques with Tie2 using DHFR deficiency as selection marker, are stimulated by angiopoietin-2. The specific autophosphorylation of Tie2 receptors is quantified with a sandwich-ELISA using anti-Tie2 antibodies for catch and anti-phosphotyrosine antibodies coupled to HRP as detection.
• 1 cap Vanadate (1 mL>40 mg/mL; working solution 2 mM) • ad 50 mL with Duschl buffer • pH 7.6 Anti-TIE-II antibody 1:425 in Coating Buffer pH 9.6 Stock solution: 1.275 mg/ml>working.: 3 μg/mL PBST: 2 bottles PBS(10×)+10 ml Tween, fill up with deionised water RotiBlock 1:10 in deionised water Anti-Phosphotyrosine HRP-Conjugated 1:10000 in 3% TopBlock • 3% TopBlock in PBST BM Chemiluminescence ELISA Substrate (POD) • solution B 1:100 solution A SF9 cell culture medium Ang2-Fc in SF9 cell culture medium Cell Experiment: Dispense 5×10^4 cells/well/98 μl in 96 well tissue culture plate Incubate at 37° C./5% CO2 After 24 h add compounds according to desired concentrations Add also to control and stimulated values without compounds 2 μl DMSO And mix for a few min at room temperature Add 100 μAng2-Fc to all wells except control, which receives insect medium Incubate 20 min at 37° C. Wash 3× with PBS++ Add 100 μl Lysis buffer/well and shake a couple of min at room temperature Store lysates at […] before utilizing for the ELISA Performance of Sandwich-ELISA Coat 96 well FluoroNunc Plate MaxiSorp Surface C with anti-Tie2 Mab 1:425 in Coating buffer pH 9.6; 100 μL/well overnight at 4° C. Wash 2× with PBST Block plates with 250 μL/well RotiBlock 1:10 in deionised water Incubate for 2 h at room temperature or overnight at 4° C. shaking Wash 2× in PBST Add thawed lysates to wells and incubate overnight shaking at 4° C. Wash 2× with PBST Add 100 μL/well anti-Phosphotyrosine HRP-Conjugated 1:10000 in 3% TopBlock (3% TopBlock in PBST) and incubate overnight under shaking Wash 6× with PBST Add 100 μL/well BM Chemiluminescence ELISA Substrate (POD solutions 1 and 2 (1:100) Determine luminescence with the LumiCount. Biological Experiment 2: Tie-2-Kinase HTRF-Assay
On the technique in general: An ELISA detects its analyte on a solid surface through an enzyme-linked reagent.
Target sequence in this assay (Q02763 23-1124): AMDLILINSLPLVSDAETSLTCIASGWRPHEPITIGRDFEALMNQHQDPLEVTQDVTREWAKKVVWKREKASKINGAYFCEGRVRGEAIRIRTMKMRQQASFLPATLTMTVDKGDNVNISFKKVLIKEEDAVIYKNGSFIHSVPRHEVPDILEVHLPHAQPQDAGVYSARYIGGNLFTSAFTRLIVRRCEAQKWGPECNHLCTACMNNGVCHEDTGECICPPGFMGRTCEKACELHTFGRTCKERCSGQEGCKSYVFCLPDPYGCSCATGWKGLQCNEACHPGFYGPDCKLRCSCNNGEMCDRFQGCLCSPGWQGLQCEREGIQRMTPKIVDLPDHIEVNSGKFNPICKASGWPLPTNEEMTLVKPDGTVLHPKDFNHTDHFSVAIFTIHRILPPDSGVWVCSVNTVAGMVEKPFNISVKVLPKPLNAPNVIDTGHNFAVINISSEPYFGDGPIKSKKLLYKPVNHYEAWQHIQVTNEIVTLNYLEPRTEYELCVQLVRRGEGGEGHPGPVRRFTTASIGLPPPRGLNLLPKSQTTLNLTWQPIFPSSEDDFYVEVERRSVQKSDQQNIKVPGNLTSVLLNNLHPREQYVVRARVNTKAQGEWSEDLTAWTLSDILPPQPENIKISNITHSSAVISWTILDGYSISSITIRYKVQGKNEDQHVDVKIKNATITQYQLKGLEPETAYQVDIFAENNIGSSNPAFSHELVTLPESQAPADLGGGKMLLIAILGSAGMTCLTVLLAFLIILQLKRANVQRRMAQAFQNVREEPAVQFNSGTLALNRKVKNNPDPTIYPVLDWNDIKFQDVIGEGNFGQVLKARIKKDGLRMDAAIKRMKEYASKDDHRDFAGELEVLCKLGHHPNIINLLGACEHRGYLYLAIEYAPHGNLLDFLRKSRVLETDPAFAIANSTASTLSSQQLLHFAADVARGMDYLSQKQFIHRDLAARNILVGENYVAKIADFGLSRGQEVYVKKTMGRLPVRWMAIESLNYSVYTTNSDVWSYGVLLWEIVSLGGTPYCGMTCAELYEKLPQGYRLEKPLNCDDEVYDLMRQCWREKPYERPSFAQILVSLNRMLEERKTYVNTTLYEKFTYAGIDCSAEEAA

Test [3] concerns the target T2, Tie2. Kind of test: Tie-2 kinase assay without preactivation of kinase (Biological Experiment 3, HTRF). It is filed as biochemical. Details: fusion protein of GST and the intracellular domains of Tie-2; GST; made in house; host or cells: insect cells (Hi-5). The conditions noted are these: mean IC50; GST-Tie-2 without preactivation, 10 μM ATP; read-out: Inhibition of Tie-2 kinase (Biological Experiment 3). An excerpt:
Biological Experiment 3: Tie-2 Kinase Assay without Preactivation of Kinase
A recombinant fusion protein of GST and the intracellular domains of Tie-2, expressed in insect cells (Hi-5) and purified by Glutathion-Sepharose affinity chromatography was used as kinase. Alternatively, commercially available GST-Tie2-fusion protein (Upstate Biotechnology, Dundee, Scotland) can be used. As substrate for the kinase reaction the biotinylated peptide biotin-Ahx-EPKDDAYPLYSDFG (C-terminus in amide form) was used which can be purchased e.g. from the company Biosynthan GmbH (Berlin-Buch, Germany). Tie-2 (3.5 ng/measurement point) was incubated for 60 min at 22° C. in the presence of 10 μM adenosine-tri-phosphate (ATP) and 1 μM substrate peptide (biotin-Ahx-EPKDDAYPLYSDFG-NH2) with different concentrations of test compounds (0 μM and concentrations in the range 0.001-20 μM) in 5 μl assay buffer [50 mM Hepes/NaOH pH 7, 10 mM MgCl2, 0.5 mM MnCl2, 1.0 mM dithiothreitol, 0.01% NP40, protease inhibitor mixture (“Complete w/o EDTA” from Roche, 1 tablet per 2.5 ml), 1% (v/v) dimethylsulfoxide]. To stabilize the enzyme, bovine serum albumin (0.1%, w/v) can be added. The reaction was stopped by the addition of 5 μl of an aqueous buffer (25 mM Hepes/NaOH pH 7.5, 0.28% (w/v) bovine serum albumin) containing EDTA (90 mM) and the HTRF (Homogeneous Time Resolved Fluorescence) detection reagents streptavidine-XLent (0.2 μM, from C is Biointernational, Marcoule, France) and PT66-Eu-Chelate (0.3 ng/μl; a europium-chelate labelled anti-phospho-tyrosine antibody from Perkin Elmer).
The resulting mixture was incubated 1 h at 22° C. to allow the binding of the biotinylated phosphorylated peptide to the streptavidine-XLent and the PT66-Eu-Chelate. Subsequently the amount of phosphorylated substrate peptide was evaluated by measurement of the resonance energy transfer from the PT66-Eu-Chelate to the streptavidine-XLent. Therefore, the fluorescence emissions at 620 nm and 665 nm after excitation at 350 nm was measured in a HTRF reader, e.g. a Rubystar (BMG Labtechnologies, Offenburg, Germany) or a Viewlux (Perkin-Elmer). The ratio of the emissions at 665 nm and at […] was taken as the measure for the amount of phosphorylated substrate peptide. The data were normalised (enzyme reaction without inhibitor=0% inhibition, all other assay components but no enzyme=100% inhibition) and IC50 values were calculated by a 4 parameter fit using an inhouse software.
Target sequence in this assay (Q02763 770-1124 limits assumed): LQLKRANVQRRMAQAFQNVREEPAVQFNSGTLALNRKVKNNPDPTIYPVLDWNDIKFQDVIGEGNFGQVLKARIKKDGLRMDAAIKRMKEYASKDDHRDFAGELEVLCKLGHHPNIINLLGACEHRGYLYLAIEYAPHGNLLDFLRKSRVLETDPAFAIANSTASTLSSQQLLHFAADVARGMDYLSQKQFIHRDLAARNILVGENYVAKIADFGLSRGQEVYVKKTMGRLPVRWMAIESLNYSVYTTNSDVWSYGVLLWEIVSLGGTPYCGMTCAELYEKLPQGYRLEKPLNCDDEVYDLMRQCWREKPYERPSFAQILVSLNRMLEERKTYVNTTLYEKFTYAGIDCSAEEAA

A value given as a limit tells only on which side of the number the result lay.

T1 sequence (P35968 20-1356): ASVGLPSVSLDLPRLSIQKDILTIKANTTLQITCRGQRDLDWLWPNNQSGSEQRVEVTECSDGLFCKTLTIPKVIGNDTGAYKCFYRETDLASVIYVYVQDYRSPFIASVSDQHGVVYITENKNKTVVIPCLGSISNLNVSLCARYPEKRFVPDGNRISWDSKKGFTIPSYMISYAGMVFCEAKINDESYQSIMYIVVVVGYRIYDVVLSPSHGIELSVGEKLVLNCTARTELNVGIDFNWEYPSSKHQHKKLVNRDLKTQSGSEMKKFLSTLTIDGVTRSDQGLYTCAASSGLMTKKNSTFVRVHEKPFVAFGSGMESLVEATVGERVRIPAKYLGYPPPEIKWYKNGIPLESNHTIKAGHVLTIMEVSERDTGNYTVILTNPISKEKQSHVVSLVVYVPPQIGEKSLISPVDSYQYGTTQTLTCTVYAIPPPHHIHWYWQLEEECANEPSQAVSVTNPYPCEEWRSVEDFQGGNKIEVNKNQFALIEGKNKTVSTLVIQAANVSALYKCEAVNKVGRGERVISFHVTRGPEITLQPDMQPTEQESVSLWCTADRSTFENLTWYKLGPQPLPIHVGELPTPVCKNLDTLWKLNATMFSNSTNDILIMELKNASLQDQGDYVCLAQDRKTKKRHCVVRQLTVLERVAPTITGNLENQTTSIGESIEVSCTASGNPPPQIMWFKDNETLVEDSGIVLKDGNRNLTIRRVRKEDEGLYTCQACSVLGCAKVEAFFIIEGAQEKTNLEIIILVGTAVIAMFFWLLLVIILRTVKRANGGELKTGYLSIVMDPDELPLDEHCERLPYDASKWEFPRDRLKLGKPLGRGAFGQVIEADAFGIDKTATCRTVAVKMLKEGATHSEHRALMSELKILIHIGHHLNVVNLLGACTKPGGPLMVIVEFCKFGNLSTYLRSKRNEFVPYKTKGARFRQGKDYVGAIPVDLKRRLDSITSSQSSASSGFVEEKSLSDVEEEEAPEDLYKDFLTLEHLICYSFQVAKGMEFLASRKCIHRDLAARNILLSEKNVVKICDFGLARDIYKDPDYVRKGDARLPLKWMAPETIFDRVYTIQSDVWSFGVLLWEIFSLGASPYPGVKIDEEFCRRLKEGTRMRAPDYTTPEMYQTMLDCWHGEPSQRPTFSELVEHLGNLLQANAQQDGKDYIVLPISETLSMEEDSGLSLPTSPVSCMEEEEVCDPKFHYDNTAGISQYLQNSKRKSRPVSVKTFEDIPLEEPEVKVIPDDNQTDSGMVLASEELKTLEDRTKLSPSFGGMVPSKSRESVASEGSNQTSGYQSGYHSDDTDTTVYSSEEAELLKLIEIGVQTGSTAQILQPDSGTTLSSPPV

As for `Cc1cccc(NC(=O)Nc2ccc(-c3cc(C(C)(C)C)nc4[nH]nc(N)c34)cc2)c1` [Example 9, 1-[4-(3-amino-6-tert-butyl-1H-pyrazolo[3,4-b]pyridin-4-yl)-phenyl]-3-m-tolyl-urea], the figures for the IC50 in test [1], in test [2] and in test [3] were 500 to 2000 nM, no more than 500 nM and no more than 500 nM, respectively.

Regarding `CC(C)(C)c1cc(-c2ccc(NC(=O)Nc3ccc(F)cc3)cc2)c2c(N)n[nH]c2n1` [Example 12, 1-[4-(3-amino-6-tert-butyl-1H-pyrazolo[3,4-b]pyridin-4-yl)-phenyl]-3-(4-fluoro-phenyl)-urea], the IC50 was no more than 500 nM in test [2] and 500 to 2000 nM in test [3].

In the case of `CC(C)(C)c1cc(-c2ccc(NC(=O)Nc3cccc(F)c3)cc2)c2c(N)n[nH]c2n1` [Example 3, 1-[4-(3-amino-6-tert-butyl-1H-pyrazolo[3,4-b]pyridin-4-yl)-phenyl]-3-(3-fluoro-phenyl)-urea], the IC50 in test [2] is no more than 500 nM; in test [3] it was 500 to 2000 nM.

Take `Cc1ccc(F)c(NC(=O)Nc2ccc(-c3cc(C(C)(C)C)nc4[nH]nc(N)c34)cc2)c1` [Example 31, 1-[4-(3-amino-6-tert-butyl-1 H-pyrazolo[3,4-b]pyridin-4-yl)-phenyl]-3-(2-fluoro-5-methyl-phenyl)-urea]: in test [3], the IC50 was no more than 500 nM.

In the case of `CC(C)(C)c1cc(-c2ccc(NC(=O)Cc3ccccc3)cc2)c2c(N)n[nH]c2n1` [Example 47, N-[4-(3-amino-6-tert-butyl-1H-pyrazolo[3,4-b]pyridin-4-yl)-phenyl]-2-phenyl-acetamide], the IC50 in test [2] and in test [3] was 500 to 2000 nM each time.

With `Nc1n[nH]c2nc(C3CC3)cc(-c3ccc(NC(=O)Nc4ccccc4F)cc3)c12` [Example 15, 1-[4-(3-amino-6-cyclopropyl-1H-pyrazolo[3,4-b]pyridin-4-yl)-phenyl]-3-(2-fluoro-phenyl)-urea], the IC50 in test [1] is 500 to 2000 nM; in test [2], no more than 500 nM; in test [3], no more than 500 nM.

For `CC(C)(C)c1cc(-c2ccc(NC(=O)Nc3ccccc3)cc2)c2c(N)n[nH]c2n1` [Example 1, 1-[4-(3-amino-6-tert-butyl-1H-pyrazolo[3,4-b]pyridin-4-yl)-phenyl]-3-phenyl-urea], the IC50 in test [1] is 500 to 2000 nM; in test [2], 500 to 2000 nM; in test [3], no more than 500 nM.

`CC(C)c1cc(-c2ccc(NC(=O)Nc3cccc(C(F)(F)F)c3)cc2)c2c(N)n[nH]c2n1` [Example 16, 1-[4-(3-amino-6-isopropyl-1H-pyrazolo[3,4-b]pyridin-4-yl)-phenyl]-3-(3-trifluoromethyl-phenyl)-urea]: the IC50 in test [1], in test [2] and in test [3] was no more than 500 nM throughout.

Consider `Nc1n[nH]c2nc(C3CC3)cc(-c3ccc(NC(=O)Nc4ccccc4)cc3)c12` [Example 14, 1-[4-(3-amino-6-cyclopropyl-1H-pyrazolo[3,4-b]pyridin-4-yl)-phenyl]-3-phenyl-urea], for which the results for the IC50 in test [1], in test [2] and in test [3] were no more than 500 nM, no more than 500 nM and 500 to 2000 nM, respectively.

Consider `CC(C)(C)c1cc(-c2ccc(NS(=O)(=O)c3ccccc3)cc2)c2c(N)n[nH]c2n1` [Example 2, N-[4-(3-amino-6-tert-butyl-1H-pyrazolo[3,4-b]pyridin-4-yl)-phenyl]-benzenesulfonamide], for which the IC50 in test [2] and in test [3] was 500 to 2000 nM in each case.

With `CC(C)(C)c1cc(-c2ccc(NC(=O)Nc3cc(C(F)(F)F)ccc3F)cc2)c2c(N)n[nH]c2n1` [Example 37, 1-[4-(3-amino-6-tert-butyl-1H-pyrazolo[3,4-b]pyridin-4-yl)-phenyl]-3-(2-fluoro-5-trifluoromethyl-phenyl)-urea], the IC50 in test [1], in test [2] and in test [3] was no more than 500 nM in each case.

For the compound `CC(C)(C)c1cc(-c2ccc(NC(=O)C(C)(C)c3ccccc3)cc2)c2c(N)n[nH]c2n1` [Example 51, N-[4-(3-amino-6-tert-butyl-1H-pyrazolo[3,4-b]pyridin-4-yl)-phenyl]-2-phenyl-isobutyramide], the IC50 was no more than 500 nM in test [2] and 500 to 2000 nM in test [3].

As to `CC(C)(C)c1cc(-c2ccc(NC(=O)C3(c4ccccc4)CC3)cc2)c2c(N)n[nH]c2n1` [Example 49, 1-phenyl-cyclopropanecarboxylic acid [4-(3-amino-6-tert-butyl-1H-pyrazolo[3,4-b]pyridin-4-yl)-phenyl]-amide], the IC50 in test [2] and in test [3] was no more than 500 nM throughout.

Regarding `CC(C)(C)c1cc(-c2ccc(NC(=O)Nc3cccc(C(F)(F)F)c3)cc2)c2c(N)n[nH]c2n1` [Example 27, 1-[4-(3-amino-6-tert-butyl-1H-pyrazolo-[3,4-b]pyridin-4-yl)-phenyl]-3-(3-trifluoro-methyl-phenyl)-urea], the IC50 in test [1], in test [2] and in test [3] was no more than 500 nM throughout.

For the compound `Cc1ccc(C(=O)Nc2ccc(-c3cc(C(C)(C)C)nc4[nH]nc(N)c34)cc2)cc1` [Example 17, N-[4-(3-amino-6-tert-butyl-1H-pyrazolo[3,4-b]pyridin-4-yl)-phenyl]-4-methyl-benzamide], the IC50 in test [1], in test [2] and in test [3] was 500 to 2000 nM throughout.
